Experimental data published in US20200397738A1, “METHODS FOR TREATING CANCER AND PROTECTING RENEWABLE TISSUES” (President and Fellows of Harvard College, priority 2018, published 2020).

Assays:
EZH2 [1] = test: immunostaining of EZH2 and H3K27me3 in renewable tissues; format: in vivo, mice; conditions: thymus, spleen and duodenum, 4 mg/kg, 19 hours
Protocol: (§1) Half-life of EZH2 was measured in splenocytes isolated from wildtype mouse that had been pretreated with 2 μg/ml of Compound 1 for 24 hours followed by 100 μg/ml cycloheximide (CHX). […] To further confirm the effect of Compound 1 on EZH2 and H3K27me3, thymocytes isolated from wildtype mice were treated with 0, 0.5, 1, 3 or 5 μg/ml of Compound 1 for 12 hours. […] Furthermore, to validate the effect of Compound 1 on EZH2 and H3K27me3 in renewable tissues, wildtype mice were treated with 0 or 4 mg/kg of Compound 1 for 19 hours.

thymocytes = test: IR-induced killing of thymocytes, cell count; format: cell-based, mice
Protocol: Thymocytes isolated from wildtype mice were treated with 2 μg/ml of Compound 1 for 24 hours, in absence or presence of 2 μM GSK126, followed by 0 Gy or 5 Gy IR. Cell numbers were counted 48 hours after IR to assess the effect of Compound 1 and EZH2 inhibition on IR-induced killing.

MDM2/MDMX complex [2] = molecular target: T1, MDM2/MDMX complex (Homo sapiens, UniProt O15151+Q00987); test: cell-based mammalian two-hybrid assay
T1 construct: expressed in transfected cells
T1 sequence (Q00987 whole entry): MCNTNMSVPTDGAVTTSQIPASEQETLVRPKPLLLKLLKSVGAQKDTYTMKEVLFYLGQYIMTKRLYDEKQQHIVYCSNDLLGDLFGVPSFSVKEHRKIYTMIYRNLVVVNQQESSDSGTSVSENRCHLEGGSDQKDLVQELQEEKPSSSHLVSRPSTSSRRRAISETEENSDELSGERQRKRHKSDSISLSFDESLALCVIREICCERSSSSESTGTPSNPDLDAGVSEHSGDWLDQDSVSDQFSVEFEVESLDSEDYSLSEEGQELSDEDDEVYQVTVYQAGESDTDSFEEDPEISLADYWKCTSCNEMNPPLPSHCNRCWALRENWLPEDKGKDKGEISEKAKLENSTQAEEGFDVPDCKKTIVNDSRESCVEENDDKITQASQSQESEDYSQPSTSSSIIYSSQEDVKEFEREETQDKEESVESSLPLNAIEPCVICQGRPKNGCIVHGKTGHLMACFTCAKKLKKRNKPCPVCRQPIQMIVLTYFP
T1 sequence (O15151 whole entry): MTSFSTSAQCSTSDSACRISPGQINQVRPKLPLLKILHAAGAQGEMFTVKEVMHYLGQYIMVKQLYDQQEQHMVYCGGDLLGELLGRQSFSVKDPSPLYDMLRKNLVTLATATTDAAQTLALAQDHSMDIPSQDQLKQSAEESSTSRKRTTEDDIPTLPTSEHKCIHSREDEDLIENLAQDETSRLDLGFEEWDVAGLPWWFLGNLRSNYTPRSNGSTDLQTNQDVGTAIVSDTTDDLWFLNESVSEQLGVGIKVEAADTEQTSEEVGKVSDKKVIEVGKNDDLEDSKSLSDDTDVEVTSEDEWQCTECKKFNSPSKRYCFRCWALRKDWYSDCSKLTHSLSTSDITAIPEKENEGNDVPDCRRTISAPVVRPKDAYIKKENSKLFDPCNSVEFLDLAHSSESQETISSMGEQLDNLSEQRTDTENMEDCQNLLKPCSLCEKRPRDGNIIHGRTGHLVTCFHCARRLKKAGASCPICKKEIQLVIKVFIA

[3] = test system: thymus, spleen and duodenum; test: TUNEL analysis of IR- and doxorubicin-induced apoptosis in renewable tissues; format: in vivo, wild-type mice
Protocol: To assess the protective effects of Compound 1 on renewable tissues, wild-type mice were injected with Compound 1 at a dose of 4 mg/kg IP for 19 hours before 4 Gy ionizing radiation (IR) or exposure to doxorubicin (20 mg/kg).

MDM2/MDMX complex [4] = molecular target: T2, MDM2/MDMX complex (Mus musculus, UniProt O35618+P23804); test: immunoprecipitation with anti-Mdmx antibody and immunoblot in splenocytes; format: cell-based; conditions: splenocytes from wild-type mice, 2 or 5 μg/ml, 24 hour
T2 construct: endogenous in cells; host or cells: primary splenocytes from wild-type mice
T2 sequence (P23804 whole entry): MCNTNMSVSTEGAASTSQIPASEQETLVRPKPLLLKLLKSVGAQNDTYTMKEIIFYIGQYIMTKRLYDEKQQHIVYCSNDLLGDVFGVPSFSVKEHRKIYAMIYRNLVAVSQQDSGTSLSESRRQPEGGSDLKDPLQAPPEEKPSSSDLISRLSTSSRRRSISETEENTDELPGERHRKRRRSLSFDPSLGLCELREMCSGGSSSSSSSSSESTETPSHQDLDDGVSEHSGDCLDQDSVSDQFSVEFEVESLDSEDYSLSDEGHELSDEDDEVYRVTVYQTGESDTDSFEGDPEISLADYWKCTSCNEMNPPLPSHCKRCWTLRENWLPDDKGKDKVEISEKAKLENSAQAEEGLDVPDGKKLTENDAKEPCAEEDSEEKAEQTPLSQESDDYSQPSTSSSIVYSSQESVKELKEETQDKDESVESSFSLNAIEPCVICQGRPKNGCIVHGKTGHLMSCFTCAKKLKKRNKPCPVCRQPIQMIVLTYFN
T2 sequence (O35618 whole entry): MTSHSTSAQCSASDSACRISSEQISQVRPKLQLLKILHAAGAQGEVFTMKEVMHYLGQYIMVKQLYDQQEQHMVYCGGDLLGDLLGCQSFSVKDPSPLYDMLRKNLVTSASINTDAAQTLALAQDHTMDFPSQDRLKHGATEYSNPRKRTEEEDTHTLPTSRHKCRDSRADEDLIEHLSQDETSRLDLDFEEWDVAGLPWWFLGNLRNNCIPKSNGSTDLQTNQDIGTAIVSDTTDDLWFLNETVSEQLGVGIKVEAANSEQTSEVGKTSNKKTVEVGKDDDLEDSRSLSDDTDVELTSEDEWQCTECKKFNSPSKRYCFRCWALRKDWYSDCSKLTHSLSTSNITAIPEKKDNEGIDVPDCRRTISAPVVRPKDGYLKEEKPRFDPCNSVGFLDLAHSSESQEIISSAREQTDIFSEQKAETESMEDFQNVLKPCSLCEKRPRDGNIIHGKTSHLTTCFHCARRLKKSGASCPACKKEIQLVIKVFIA
Protocol: A small molecule compound, referred to herein as Compound 1 was used to dissociate and reduce the MDM2/MDMX complex, and preserve p53. […] To further verify this finding, splenocytes from wild-type mice were treated with 2 or 5 μg/ml of Compound 1, or vehicle for 24 hour.

[5] = test system: human breast cancer cells MCF-7; test: MCF-7 cell proliferation; format: cell-based; conditions: MCF-7, 10 μM
Protocol: To assess the impact of Compound 1 on cell proliferation, human breast cancer cells MCF-7 were treated with 10 μM of Compound 1.

EZH2 [6] = test: half-life of EZH2 in splenocytes with cycloheximide; format: cell-based, mouse; conditions: 2 μg/ml 24 hours, then 100 μg/ml cycloheximide
Protocol: as §1

p53 = test: RT-qPCR of CDKN1A/p21 in MCF-7 cells (marker of p53 activity); format: cell-based, human; conditions: MCF-7, 0-100 μg/ml
Protocol: (§2) To assess the impact of Compound 1 and preserved p53 on apoptosis, human breast cancer cells MCF-7 were treated with increasing doses (0-100 μg/ml) of Compound 1. […] The expression level of the pro-apoptotic gene p21 was used as surrogate marker to assess the activity of p53. […] C57BL/6 mice were treated with, PBS, Nutlin 3A (200 mg/kg) or Compound 1 (200 mg/kg). The mice were sacrificed 24 hours later, and caspase-3 expression was assessed in thymus, a tissue very sensitive to p53-induced apoptosis.

MCF-7 tumor xenografts = test: immunohistochemical analysis of MCF-7 tumor xenografts; format: in vivo; conditions: 10 mg/kg IP daily, relative to vehicle-treated mice
[7] = molecular target: MDM2/MDMX-mediated p53 ubiquitination (Homo sapiens, UniProt O15151+Q00987); test: cell-free assay with purified proteins, p53 ubiquitination; format: biochemical
Chain of MDM2/MDMX-mediated p53 ubiquitination (Q00987 whole entry): as the sequence (Q00987 whole entry) above
Chain of MDM2/MDMX-mediated p53 ubiquitination (O15151 whole entry): as the sequence (O15151 whole entry) above

HIF1 = test: RT-qPCR of ALDHA in MCF-7 cells (marker of HIF1 activity); format: cell-based, human; conditions: MCF-7, 0-100 μg/ml
From the text: The expression level of ALDHA was used as surrogate marker to assess the activity of HIF1.

MCF-7 xenograft tumors = test: growth of MCF-7 xenograft tumors; format: in vivo; conditions: 10 mg/kg IP daily, compared to vehicle-treated mice
From the text: Expression of GLUT1 and PGK1 serves as markers of aggressive biological behavior and identifies a worse prognosis in breast cancer patients.

EZH2 [8] = test: Western blot of EZH2 and H3K27me3 in thymocytes; format: cell-based, mice; conditions: thymocytes, 0.5, 1, 3 or 5 μg/ml, 12 hours
Protocol: as §1

[9] = test system: thymus, spleen and duodenum; test: TUNEL analysis of IR- and doxorubicin-induced apoptosis in renewable tissues; format: in vivo, wild-type mice; conditions: doxorubicin 20 mg/kg alone (Compound 1 0 mg/kg)
thymus = test: acute toxicity experiment, caspase-3 in thymus; conditions: 200 mg/kg, 24 hours
Protocol: as §2

COC(=O)C1(Cc2ccc(C)c(C/C=C(/C)Cl)c2)OC(=O)C(O)C1c1ccc(O)cc1 (stereo not drawn) [Compound 1]
EZH2 immunostaining (EZH2 [1]): induction | H3K27me3 immunostaining (EZH2 [1]): induction | IR-induced cell death (thymocytes; 2 μg/ml 24 hours, 5 Gy IR, counted 48 hours after IR): significantly attenuated | disassociation of the MDM2/MDMX complex (MDM2/MDMX complex [2]): dose-dependent disassociation | TUNEL apoptosis ([3]; Duodenum, 4 Gy IR, Compound 1 4 mg/kg IP 19 hours before): 1 ± 0.3% | TUNEL apoptosis ([3]; Duodenum, Control (no IR or doxorubicin), Compound 1 4 mg/kg IP): 0% | TUNEL apoptosis ([3]; Duodenum, doxorubicin 20 mg/kg, Compound 1 4 mg/kg IP 19 hours before): 3 ± 0.1% | TUNEL apoptosis ([3]; Spleen, 4 Gy IR, Compound 1 4 mg/kg IP 19 hours before): 7 ± 0.2% | TUNEL apoptosis ([3]; Spleen, Control (no IR or doxorubicin), Compound 1 4 mg/kg IP): 0% | TUNEL apoptosis ([3]; Spleen, doxorubicin 20 mg/kg, Compound 1 4 mg/kg IP 19 hours before): 1 ± 0.1% | TUNEL apoptosis ([3]; Thymus, 4 Gy IR, Compound 1 4 mg/kg IP 19 hours before): 22 ± 4% | TUNEL apoptosis ([3]; Thymus, Control (no IR or doxorubicin), Compound 1 4 mg/kg IP): 0% | TUNEL apoptosis ([3]; Thymus, doxorubicin 20 mg/kg, Compound 1 4 mg/kg IP 19 hours before): 1 ± 0.2% | disassociation of the MDM2/MDMX complex (MDM2/MDMX complex [4]): disassociation | cell proliferation [5]: considerable reduction in cell proliferation | half-life of EZH2 (EZH2 [6]): prolonged half-life | mRNA level of p21 (p53): little induction | expression of PUMA in tumors (MCF-7 tumor xenografts): little to no change | expression of p21 in tumors (MCF-7 tumor xenografts): little to no change | glycolytic marker GLUT1 in tumors (MCF-7 tumor xenografts): lower level | glycolytic marker PGK1 in tumors (MCF-7 tumor xenografts): lower level | p53 level in tumors (MCF-7 tumor xenografts): readily detectable levels of p53 | proliferation marker Ki-67 in tumors (MCF-7 tumor xenografts): lower level | MDM2/MDMX-mediated p53 ubiquitination and degradation [7]: blocking MDM2/MDMX-mediated p53 ubiquitination and degradation | mRNA level of ALDHA (HIF1): significant decrease | tumor growth (MCF-7 xenograft tumors): significant growth delay | level of EZH2 (EZH2 [8]): significantly induced levels | level of H3K27me3 (EZH2 [8]): significantly induced levels

COc1cccc2c1C(=O)c1c(O)c3c(c(O)c1C2=O)C[C@@](O)(C(=O)CO)C[C@@H]3O[C@H]1C[C@H](N)[C@H](O)[C@H](C)O1 [Doxorubicin, doxorubicin]
TUNEL apoptosis ([9]; Duodenum): 15 ± 1.1% | TUNEL apoptosis ([9]; Spleen): 22 ± 0.2% | TUNEL apoptosis ([9]; Thymus): 15 ± 0.1%

CC[C@H](C)n1cc(C)c2c(C(=O)NCc3c(C)cc(C)[nH]c3=O)cc(-c3ccc(N4CCNCC4)nc3)cc21 [GSK126, reference compound]
protective effect of Compound 1 against IR-induced cell death (thymocytes; 2 μM GSK126 with 2 μg/ml Compound 1, 5 Gy IR): reversed

COc1ccc(C2=N[C@@H](c3ccc(Cl)cc3)[C@@H](c3ccc(Cl)cc3)N2C(=O)N2CCNC(=O)C2)c(OC(C)C)c1 [Nutlin 3A]
caspase-3 activation (apoptosis) in thymus (thymus): considerable apoptosis
